Tests used:
[1] = Light stability in MCT oil (HPLC % area); format: physicochemical; settings: for Purity after 1 h (%) / MK7 content in the sample after 1 h: light exposure 1 h; for Purity after 1 d (%) / MK7 content in the sample after 1 d: light exposure 1 d; for Purity after 3 d (%) / MK7 content in the sample after 3 d: light exposure 3 d; for MK7 content in the sample after 3 d: in %
Procedure: The light stability of MK-7 was compared certain example compounds as hereinbefore described. Compounds were dissolved separately in ethyl acetate or MCT oil, transferred to glass vial (clear glass) and placed on the bench in a well lit laboratory (ordinary room lighting). […]
(§1) The samples were analyzed by HPLC using aHPLC_KB_001, with the HPLC conditions detailed below.
(§2) HPLC-DAD high pressure system: Agilent, LC system 1100 series
(§3) Analytical column: Supelcosil C-18, 4.6×250 mm, 5 µm
(§4) Column temperature: 40° C.
(§5) Eluent system: 50% Solvent C: MeOH/Water with 0.1% v/v acetic acid (95/5 v/v) 50% Solvent D: Isopropanol
(§6) The content of MK-7 and the MK-7 derivative in the samples have been quantified as % area of the total peak area in the chromatogram.

[2] = Light stability in ethyl acetate (HPLC % area); format: physicochemical; settings: for After 19 hrs % (content as % area of the total peak area) / Initial % (content as % area of the total peak area) / MK-7 content in the sample after 19 hrs: in ethyl acetate; for After 19 hrs % (content as % area of the total peak area): after 19 hrs of light exposure (ordinary room lighting); for Initial % (content as % area of the total peak area): clear glass vial, initial time point; for light stability compared with the diacetylated compound: light exposure, comparison in words; for MK-7 content in the sample after 19 hrs: after 19 hrs of light exposure, MK-7 formed from the derivative
Procedure: The light stability of MK-7 was compared certain example compounds as hereinbefore described. Compounds were dissolved separately in ethyl acetate or MCT oil, transferred to glass vial (clear glass) and placed on the bench in a well lit laboratory (ordinary room lighting). The samples were analyzed after 19 hours of light exposure or more.
as §1, §2, §3, §4, §5, §6

[3] = Rat study: MK-7 in plasma after oral gavage in sunflower oil; format: in vivo, male Sprague Dawley Rats; settings: rats
Procedure: Brief Procedure: Rats: Male Rats aged 6 to 8 weeks and weighing around 180 to 225 g. Animals were fasted overnight with free access to water. Animals were administered test substance by oral gavage with a dose of 100 μg/kg body weight (in recommended formulation and dose volume). Blood samples (150-200 μl) were collected at various time points during the next 48 hours post dose. To determine the bioavailability of different formulations containing MK-7 in male e Sprague Dawley Rats through gavage. Formulations were both dissolved in sunflower oil. Approximately 0.4 ml/animal (depending on the weight of the animal) via oral gavage (100 μg/kg body weight). There were 6 animals per formulation. Blood samples were collected from the tail vein of each animal and transferred into lithium heparin tubes at 2 and 12 hours post dose. Quantification of analyte in plasma was determined by LC-MS-MS analysis: Analyte: MK-7 in plasma. The data are mean of four measurements (low and high values are not included).

Compound	Purity after 1 h (%) [1] [%]	Purity after 1 d (%) [1] [%]	Purity after 3 d (%) [1] [%]	Start purity from CoA (%) ([1]; start)	After 19 hrs % (content as % area of the total peak area) [2] [%]	Initial % (content as % area of the total peak area) [2] [%]	light stability compared with the diacetylated compound [2]	MK7 content in the sample after 1 h [1] [%]	MK7 content in the sample after 1 d [1] [%]	MK7 content in the sample after 3 d [1]	MK7 content in the sample at start ([1]; start) [%]	MK-7 content in the sample after 19 hrs [2] [%]	serum level 12 hours after administration compared with MK-7 (in words) [3]	degradation after light exposure ([1]; after 24 hours of light exposure)	degradation after light exposure ([2]; in solution, after 19 hours of light exposure (below Table 1, ethyl acetate))
CC(C)=CCC/C(C)=C/CC/C(C)=C/CC/C(C)=C/CC/C(C)=C/CC/C(C)=C/CC/C(C)=C/Cc1c(C)c(OC(=O)c2ccccc2)c2ccccc2c1OC(=O)c1ccccc1 [Example 1, 2-((2E,6E,10E,14E,18E,22E)-3,7,11,15,19,23,27-heptamethyl-octacosa-2,6,10,14,18,22,26-heptaen-1-yl)-3-methylnaphthalene-1,4-diyl dibenzoate]	98.3	97.3	92.9	98.5	95.4	98.5	more stable than the diacetylated compound								
CC(C)=CCC/C(C)=C/CC/C(C)=C/CC/C(C)=C/CC/C(C)=C/CC/C(C)=C/CC/C(C)=C/Cc1c(C)c(O)c2ccccc2c1OC(=O)c1ccccc1 [Example 2A, 2-((2E,6E,10E,14E,18E,22E)-3,7,11,15,19,23,27-heptamethyloctacosa-2,6,10,14,18,22,26-heptaen-1-yl)-4-hydroxy-3-methylnaphthalen-1-yl benzoate]	83.9	72.5	53.3	93.3	71.2	93.3		13.1	18.0	23.65	4	23.4			
CC(C)=CCC/C(C)=C/CC/C(C)=C/CC/C(C)=C/CC/C(C)=C/CC/C(C)=C/CC/C(C)=C/Cc1c(C)c(OC(=O)c2ccccc2)c2ccccc2c1O [Example 2B, 3-((2E,6E,10E,14E,18E,22E)-3,7,11,15,19,23,27-heptamethyloctacosa-2,6,10,14,18,22,26-heptaen-1-yl)-4-hydroxy-2-methylnaphthalen-1-yl benzoate]	91.9	84.6	63.8	91.5	87.6	91.5		2.7	4.1	5.6		2.8			
CCOP(=O)(OC/C=C(\C)CC/C=C(\C)CC/C=C(\C)CC/C=C(\C)CC/C=C(\C)CC/C=C(\C)CCC=C(C)C)Oc1c(CC)c(C)c(OC(=O)c2ccccc2)c2ccccc12 (stereo not shown) [Example 4, 4-((ethoxy(((2E,6E,10E,14E,18E,22E)-3,7,11,15,19,23,27-heptamethyl-octacosa-2,6,10,14,18,22,26-heptaen-1-yl)oxy)phosphoryl)oxy)-3-ethyl-2-methylnaphthalen-1-yl benzoate]	86.4	84.4	81.5	86.7											
CCC(=O)Oc1c(C)c(C/C=C(\C)CC/C=C(\C)CC/C=C(\C)CC/C=C(\C)CC/C=C(\C)CC/C=C(\C)CCC=C(C)C)c(OC(=O)CC)c2ccccc12 [Example 7, 2-((2E,6E,10E,14E,18E,22E)-3,7,11,15,19,23,27-heptamethyloctacosa-2,6,10,14,18,22,26-heptaen-1-yl)-3-methylnaphthalene-1,4-diyl dipropionate]	98.0	96.7	93.8	98.5	97.7	98.5	more stable than the diacetylated compound						the same		
CCOP(=O)(OCC)Oc1c(C)c(C/C=C(\C)CC/C=C(\C)CC/C=C(\C)CC/C=C(\C)CC/C=C(\C)CC/C=C(\C)CCC=C(C)C)c(OC(=O)CC)c2ccccc12 [Example 9, 4-((diethoxyphosphoryl)oxy)-2-((2E,6E,10E,14E,18E,22E)-3,7,11,15,19,23,27-heptamethyloctacosa-2,6,10,14,18,22,26-heptaen-1-yl)-3-methylnaphthalen-1-yl propionate]	90.1	89.0	84.2	90.7											
CCC(=O)Oc1c(C/C=C(\C)CC/C=C(\C)CC/C=C(\C)CC/C=C(\C)CC/C=C(\C)CC/C=C(\C)CCC=C(C)C)c(C)c(OC(=O)[C@@H](NC(=O)OC(C)(C)C)C(C)C)c2ccccc12 [Example 10, 3-((2E,6E,10E,14E,18E,22E)-3,7,11,15,19,23,27-heptamethyloctacosa-2,6,10,14,18,22,26-heptaen-1-yl)-2-methyl-4-(propionyloxy)naphthalen-1-yl (tert-butoxycarbonyl)-L-valinate]	92.7	92.0	89.0	93.5											
CCC(=O)Oc1c(C/C=C(\C)CC/C=C(\C)CC/C=C(\C)CC/C=C(\C)CC/C=C(\C)CC/C=C(\C)CCC=C(C)C)c(C)c(OC(=O)CCNC(=O)OC(C)(C)C)c2ccccc12 [Example 12, 3-((2E,6E,10E,14E,18E,22E)-3,7,11,15,19,23,27-heptamethyloctacosa-2,6,10,14,18,22,26-heptaen-1-yl)-2-methyl-4-(propionyloxy)naphthalen-1-yl 3-((tert-butoxycarbonyl)amino)propanoate]	91.9	89.4	84.4	92											
CC(C)=CCC/C(C)=C/CC/C(C)=C/CC/C(C)=C/CC/C(C)=C/CC/C(C)=C/CC/C(C)=C/Cc1c(C)c(OC(=O)c2ccc(C(F)(F)F)cc2)c2ccccc2c1OC(=O)c1ccc(C(F)(F)F)cc1 [Example 13, 2-((2E,6E,10E,14E,18E,22E)-3,7,11,15,19,23,27-heptamethyloctacosa-2,6,10,14,18,22,26-heptaen-1-yl)-3-methylnaphthalene-1,4-diyl bis(4-(trifluoromethyl)benzoate)]	83.6	84.8	79.6	90.2											
CC(C)=CCC/C(C)=C/CC/C(C)=C/CC/C(C)=C/CC/C(C)=C/CC/C(C)=C/CC/C(C)=C/CC1=C(C)C(=O)c2ccccc2C1=O [MK-7, 2-((2E,6E,10E,14E,18E,22E)-3,7,11,15,19,23,27-heptamethyloctacosa-2,6,10,14,18,22,26-heptaen-1-yl)-3-methylnaphthalene-1,4-dione, reference compound]	97.2	73.5	32.2	99	53.7	99.4								approximately 70%	approximately 50%
